# Test results published in PubChem BioAssay (NCI).
#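 Tested at 5 concentrations; 48 h exposure; 96-well plates; endpoints linearly interpolated, else capped at highest concentration. GI50 = concentration required for 50% inhibition of growth. TGI: concentration producing complete growth inhibition.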
# Assays:
# Assay in all cases: NCI tumour cell line growth inhibition, 48 h
# [1] = tested on: OVCAR-4 ovarian
# [2] = tested on: HS 578T breast
# [3] = tested on: A498 renal
# [4] = tested on: OVCAR-5 ovarian
# [5] = tested on: K-562 leukemia
# [6] = tested on: UACC-62 melanoma
# [7] = tested on: ACHN renal
# [8] = tested on: SR leukemia
# [9] = tested on: BT-549 breast
# [10] = tested on: SF-295 CNS
# [11] = tested on: A549 NSCLC
# [12] = tested on: MALME-3M melanoma
# [13] = tested on: NCI-H226 lung
# [14] = tested on: CCRF-CEM leukemia
# [15] = tested on: HCC-2998 colon
# [16] = tested on: SK-MEL-2 melanoma
# [17] = tested on: HT29 colon
# [18] = tested on: DU-145 prostate
# [19] = tested on: RPMI-8226 leukemia
# [20] = tested on: IGROV1 ovarian
# [21] = tested on: HOP-62 NSCLC
# [22] = tested on: HCT-15 colon
# [23] = tested on: HL-60(TB) leukemia
# [24] = tested on: SNB-19 CNS
# [25] = tested on: SK-OV-3 ovarian
# [26] = tested on: HCT-116 colon
# [27] = tested on: EKVX NSCLC
# [28] = tested on: 786-0 renal
# [29] = tested on: KM12 colon
# [30] = tested on: SNB-75 CNS
# [31] = tested on: NCI/ADR-RES ovarian
# [32] = tested on: NCI-H522 lung
# [33] = tested on: U251 CNS
# [34] = tested on: UO-31 renal
# [35] = tested on: MCF7 breast
# [36] = tested on: PC-3 prostate
# [37] = tested on: OVCAR-3 ovarian
# [38] = tested on: TK-10 renal
# [39] = tested on: MDA-MB-435
# [40] = tested on: NCI-H23 lung
# [41] = tested on: M14 melanoma
# [42] = tested on: SN12C renal
# [43] = tested on: LOX IMVI melanoma
# [44] = tested on: COLO 205 colon
# [45] = tested on: OVCAR-8 ovarian
# [46] = tested on: UACC-257 melanoma
# [47] = tested on: NCI-H460 lung
# [48] = tested on: HOP-92 NSCLC
# [49] = tested on: MDA-MB-231 breast
# [50] = tested on: SF-539 CNS
# [51] = tested on: CAKI-1 renal
# [52] = tested on: SW-620 colon
# [53] = tested on: MOLT-4 leukemia
# [54] = tested on: T-47D breast
# [55] = tested on: SK-MEL-28 melanoma
# [56] = tested on: SK-MEL-5 melanoma
# [57] = tested on: SF-268 CNS
compound,measurement,setting,value
CN1CCN(c2ccc(Nc3nc(NCCCNS(=O)(=O)c4ccc(F)cc4)c4sccc4n3)cc2)CC1,GI50,[1],10.2 µM
same,TGI,[1],38.8 µM
same,GI50,[2],4.92 µM
same,TGI,[2],25.4 µM
same,GI50,[3],16.1 µM
same,TGI,[3],32.4 µM
same,GI50,[4],18.1 µM
same,TGI,[4],55.9 µM
same,GI50,[5],2.82 µM
same,TGI,[5],> 100 µM
same,GI50,[6],12.5 µM
same,TGI,[6],25.2 µM
same,GI50,[7],17.1 µM
same,TGI,[7],40.2 µM
same,GI50,[8],2.83 µM
same,TGI,[8],> 100 µM
same,GI50,[9],13.9 µM
same,TGI,[9],31.4 µM
same,GI50,[10],13.3 µM
same,TGI,[10],26.6 µM
same,GI50,[11],21.2 µM
same,TGI,[11],97.9 µM
same,GI50,[12],12.1 µM
same,TGI,[12],24.4 µM
same,GI50,[13],10.8 µM
same,TGI,[13],23.1 µM
same,GI50,[14],22.2 µM
same,TGI,[14],> 100 µM
same,GI50,[15],14.9 µM
same,TGI,[15],30.8 µM
same,GI50,[16],15.5 µM
same,TGI,[16],29.7 µM
same,GI50,[17],5.18 µM
same,TGI,[17],25 µM
same,GI50,[18],17.4 µM
same,TGI,[18],43 µM
same,GI50,[19],5.24 µM
same,TGI,[19],37.6 µM
same,GI50,[20],12.9 µM
same,TGI,[20],28 µM
same,GI50,[21],15.4 µM
same,TGI,[21],32.8 µM
same,GI50,[22],4.6 µM
same,TGI,[22],20.1 µM
same,GI50,[23],19.8 µM
same,TGI,[23],45.4 µM
same,GI50,[24],23 µM
same,TGI,[24],61.1 µM
same,GI50,[25],27 µM
same,TGI,[25],78.4 µM
same,GI50,[26],5.35 µM
same,TGI,[26],28.5 µM
same,GI50,[27],21 µM
same,TGI,[27],73.8 µM
same,GI50,[28],15.6 µM
same,TGI,[28],34.4 µM
same,GI50,[29],16.9 µM
same,TGI,[29],56.4 µM
same,GI50,[30],0.271 µM
same,TGI,[30],20.3 µM
same,GI50,[31],18.9 µM
same,TGI,[31],55.2 µM
same,GI50,[32],13.3 µM
same,TGI,[32],27.5 µM
same,GI50,[33],5.65 µM
same,TGI,[33],28.6 µM
same,GI50,[34],10.7 µM
same,TGI,[34],28.7 µM
same,GI50,[35],7.39 µM
same,TGI,[35],20.2 µM
same,GI50,[36],13.4 µM
same,TGI,[36],46.1 µM
same,GI50,[37],17.8 µM
same,TGI,[37],55.7 µM
same,GI50,[38],24.6 µM
same,TGI,[38],61.5 µM
same,GI50,[39],14.3 µM
same,TGI,[39],27.4 µM
same,GI50,[40],14.8 µM
same,TGI,[40],30.3 µM
same,GI50,[41],2.47 µM
same,TGI,[41],7.33 µM
same,GI50,[42],13.6 µM
same,TGI,[42],37.2 µM
same,GI50,[43],12 µM
same,TGI,[43],25.6 µM
same,GI50,[44],14.2 µM
same,TGI,[44],32.2 µM
same,GI50,[45],14.9 µM
same,TGI,[45],42.8 µM
same,GI50,[46],15.1 µM
same,TGI,[46],30.3 µM
same,GI50,[47],14.5 µM
same,TGI,[47],29.2 µM
same,GI50,[48],4.72 µM
same,TGI,[48],26.1 µM
same,GI50,[49],11 µM
same,TGI,[49],27.3 µM
same,GI50,[50],12 µM
same,TGI,[50],24.4 µM
same,GI50,[51],15.2 µM
same,TGI,[51],28.4 µM
same,GI50,[52],15.2 µM
same,TGI,[52],30.1 µM
same,GI50,[53],6.02 µM
same,TGI,[53],43.1 µM
same,GI50,[54],15 µM
same,TGI,[54],40.4 µM
same,GI50,[55],13.1 µM
same,TGI,[55],25.8 µM
same,GI50,[56],15.8 µM
same,TGI,[56],29.2 µM
same,GI50,[57],12.8 µM
same,TGI,[57],63.4 µM
